The data set can be described thus: gradient 5% acetonitrile 3 min, to 50% in 2 min, to 85% in 15 min, held 3 min, 100 µL/min. Particulars: column: Zorbax Extend-C18 2.1 x 50 mm; eluents: water / acetonitrile, 0.1% formic acid. In short, it runs like this:
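Values are retention times taken from adduct peaks that software picked and an analyst inspected. The pure standards were run as mixtures of ~100 molecules on HPLC linked to a quadrupole time-of-flight mass spectrometer, in positive and negative ionization mode. A Zorbax Extend-C18 column (2.1 × 50 mm, 1.8 μm) was used at 100 μL/min with water and acetonitrile, each including 0.1% formic acid.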
Compound `O=C(C1=CN(c2ccc3c(c2)OCCO3)c2ccccc2S1(=O)=O)N1CCCCC1` had an RP-LC retention time of 830 s.

The compound `COc1ccc(-c2cn3c(CC(=O)NCc4cc(OC)c(OC)c(OC)c4)csc3n2)cc1OC` yielded an RP-LC retention time of 652 s.

Compound `CN1CCC[C@@H]1Cc1c[nH]c2ccc(CCS(=O)(=O)c3ccccc3)cc12` had an RP-LC retention time of 604 s.

The compound `CCOc1ccc(CC(=O)N2CC(C(=O)NC)C3(CCCC3)C2)cc1OCC` (stereo unspecified) showed an RP-LC retention time of 726 s.

For `CC(=O)N1CCc2cc(N3CC(C(=O)NC4CCCC4)CC3=O)ccc21` (stereo unspecified), the RP-LC retention time was 642 s.

As for `CCCS(=O)(=O)N1CCc2ccc(NC(=O)c3ccno3)cc2C1`, the RP-LC retention time worked out at 716 s.

The compound `COc1cc(OC)c(NC(=O)NC2CCN(c3nc4ccccc4n(C)c3=O)CC2)cc1Cl` yielded an RP-LC retention time of 945 s.

Consider `CCc1ccc(-c2cn3ccn(-c4ccc(OC)c(OC)c4)c(=O)c3n2)cc1`, for which the RP-LC retention time was determined as 840 s.

`COC(=O)c1ccc(NC(=O)CN2CC(c3nc(-c4cnccn4)no3)C2)cc1` returned an RP-LC retention time of 561 s.

As to `Cc1ccc(Nc2nc(C(=O)NC(C)Cc3ccco3)nc3ccccc23)cc1` (stereo unspecified), the RP-LC retention time is 873 s.

For the compound `O=C(c1ccn[nH]1)N1C[C@@H]2C(=O)N(CCc3ccccc3)C(=O)[C@@H]2C1`, the RP-LC retention time came out at 656 s.

`O=C(CC1=C2CCCCC2NC1=O)Nc1ccccc1F` (stereo unspecified) yielded an RP-LC retention time of 693 s.

On to `Cc1noc(-c2nn(C)c3c2CN(C(=O)Nc2ccccc2C(F)(F)F)CC3)n1`, for which the RP-LC retention time was 709 s.

Take `CC(=O)Nc1ccc(-n2c(-c3ccc(Cl)cc3)cn3c4c(=O)n(C)c(=O)n(C)c4nc23)cc1`: the RP-LC retention time is 766 s.

As to `CCC(=O)N(C)CCc1noc(-c2ccc(C(=O)NCCC(C)C)cc2)n1`, the RP-LC retention time was found to be 806 s.

Take `Cc1nn(-c2ccc(Cl)cc2)c(C)c1S(=O)(=O)N1CCC(C(=O)Nc2ccccc2F)CC1`: the RP-LC retention time is 1020 s.

Turning to `CCc1nnc2c(=O)n(CC(=O)NCc3ccccc3)c3cccnc3n12`, the RP-LC retention time came to 688 s.

With `CCOC(=O)c1c(C)oc2nc(C)nc(N3CCC(c4ccccc4)C3)c12` (stereo unspecified), the RP-LC retention time was 1130 s.

As for `O=C(NC1CC1)c1ccc2c(c1)CCN2C(=O)C1CCCC1`, the RP-LC retention time was 948 s.

In turn, `CN(C)S(=O)(=O)c1ccc2c(c1)cc(C(=O)NCCc1c[nH]c3ccccc13)n2C` had an RP-LC retention time of 895 s.

`CCOCCCNC(=O)CC1CCN(C(=O)c2[nH]c(C)cc2C)CC1` returned an RP-LC retention time of 661 s.

As to `CCc1nc2cc(N3CCC(C(=O)N4CCCC4)CC3)cnc2nc1CC`, the RP-LC retention time amounted to 714 s.

Turning to `COc1nc2ccccc2nc1N1CCCC(C(=O)N2CCN(c3ccccc3Cl)CC2)C1` (stereo unspecified), the RP-LC retention time was 1360 s.

`O=C(NC1CC1)c1ccc2c(c1)CCCN2S(=O)(=O)c1ccccc1` displayed an RP-LC retention time of 804 s.

In the case of `Cc1oc(-c2ccc(NC(=O)Cc3cccc(F)c3)cc2)nc1Cn1cccn1`, the RP-LC retention time is 814 s.

In turn, `C=CCn1c(C)c(CC(=O)NCCCC)c(=O)n2nc(-c3ccccc3)nc12` came in with an RP-LC retention time of 818 s.

`Cc1ccc(Nc2nc(-c3cc(C)ccc3C)cs2)nc1`: the RP-LC retention time stood at 902 s.

With `CCN1C[C@]2(C)CC[C@H](OC)[C@]34C2[C@H](OC(C)=O)[C@@]2(OCO[C@@]25CC(OC)[C@H]2C[C@]3(O)C5[C@H]2OC)C14` (stereo partly specified), the RP-LC retention time was 662 s.

`O=C(CCCc1nnc2c(=O)n(-c3ccc(Cl)cc3)ccn12)NCCc1c[nH]c2ccccc12` came in with an RP-LC retention time of 744 s.

Compound `CCOc1cccc(-c2noc(Cn3c(=O)n(CCc4ccccc4)c(=O)c4sccc43)n2)c1` registered an RP-LC retention time of 660 s.

`Cc1ccc(S(=O)(=O)c2cnc(N3CCC(C(N)=O)(N4CCCCC4)CC3)nc2N)cc1` returned an RP-LC retention time of 613 s.

The values above are taken from the METLIN SMRT retention time set (Domingo-Almenara et al. 2019).
